Assay results taken from ChEMBL document CHEMBL1629610, “A 6-aminoquinolone compound, WC5, with potent and selective anti-human cytomegalovirus activity” (Antimicrob Agents Chemother, 2009).
Activity calls are given as the source filed them. No cut-off for these calls is given here.

Assays:
[1] = tested on: Human betaherpesvirus 5; assay: Antiviral activity against Human cytomegalovirus infected in human […] cells transfected with pcDNA3.1-human GADPH-GFP assessed as induction of GFP-tagged viral immediate early gene expression at 0.5 uM after 48 hrs by transactivation assay; assay type: functional, organism-based; conditions: AD169
[2] = Cytotoxicity against human foreskin fibroblast after 5 days by MTT assay; assay type: cell-based; conditions: human foreskin fibroblasts (HFF)
[3] = tested on: Human betaherpesvirus 5; assay: Antiviral activity against Human cytomegalovirus infected in human […] cells transfected with pcDNA3.1-HIV1 LTR-GFP assessed as induction of GFP-tagged viral immediate early gene expression at 0.5 uM after 48 hrs by transactivation assay; assay type: functional, organism-based; conditions: AD169
[4] = tested on: Human betaherpesvirus 5; assay: Antiviral activity against Human cytomegalovirus infected in human […] cells transfected with pcDNA3.1-human EF1alpha-GFP assessed as induction of GFP-tagged viral immediate early gene expression at 0.5 uM after 48 hrs by transactivation assay; assay type: functional, organism-based; conditions: AD169
[5] = tested on: Human betaherpesvirus 5; assay: Antiviral activity against Human cytomegalovirus AD169 infected in human […] cells assessed as induction of GFP-tagged viral immediate early gene expression at 0.5 uM after 48 hrs by flow cytometry; assay type: functional, organism-based
[6] = tested on: Human betaherpesvirus 5; assay: Antiviral activity against Human cytomegalovirus AD169 infected in human foreskin fibroblast assessed as inhibition of viral replication after 10 days by plaque reduction assay; assay type: functional, organism-based; conditions: Human betaherpesvirus 5, AD169, 240 h
[7] = Selectivity index, ratio of CC50 for Human foreskin fibroblast to EC50 for Human cytomegalovirus AD169
[8] = Selectivity index, ratio of CC50 for human MOLT4 cells to EC50 for Human herpesvirus 6B Z29; assay type: toxicity, cell-based, MOLT-4; conditions: read-out: Ratio CC50/EC50
[9] = tested on: Human betaherpesvirus 5; assay: Antiviral activity against GDG-, GCV-,CDV-resistant Human cytomegalovirus P53 harboring DNA polymerase A987G mutant gene infected in human foreskin fibroblast by plaque reduction assay; assay type: functional, organism-based; conditions: Human betaherpesvirus 5, P53
[10] = Selectivity index, ratio of CC50 for human HSB-2 cells to EC50 for Human herpesvirus 6A GS; assay type: toxicity, cell-based; conditions: read-out: Ratio CC50/EC50
[11] = tested on: Human betaherpesvirus 5; assay: Antiviral activity against Human cytomegalovirus infected in human […] cells transfected with pcDNA3.1-HIV1 LTR-GFP assessed as induction of GFP-tagged viral immediate early gene expression at 50 uM after 48 hrs by transactivation assay; assay type: functional, organism-based; conditions: AD169
[12] = Antiviral activity against Human herpesvirus 6A GS infected in human HSB-2 cells assessed as inhibition of virus DNA replication after 12 days by quantitative real time PCR; assay type: functional, cell-based, Human herpesvirus 6 (strain GS); conditions: Human betaherpesvirus 6A, HSB2, 288 h
[13] = Cytotoxicity against mouse NIH/3T3 cells by MTT assay; assay type: cell-based, NIH3T3
[14] = tested on: Human betaherpesvirus 5; assay: Antiviral activity against Human cytomegalovirus AD169 infected in human foreskin fibroblast by plaque reduction assay; assay type: functional, organism-based; conditions: Human betaherpesvirus 5, AD169
[15] = Cytotoxicity against human HSB2 cells by MTT assay; assay type: cell-based, CCRF-HSB-2
[16] = tested on: Human betaherpesvirus 5; assay: Antiviral activity against Human cytomegalovirus AD169 infected in human […] cells assessed as induction of GFP-tagged viral immediate early gene expression at 50 uM after 48 hrs by flow cytometry; assay type: functional, organism-based
[17] = tested on: Human betaherpesvirus 5; assay: Antiviral activity against Human cytomegalovirus infected in human […] cells transfected with pcDNA3.1-human EF1alpha-GFP assessed as induction of GFP-tagged viral immediate early gene expression at 50 uM after 48 hrs by transactivation assay; assay type: functional, organism-based; conditions: AD169
[18] = tested on: Human gammaherpesvirus 8; assay: Antiviral activity against Human herpesvirus 8 infected in human BC-3 cells assessed as inhibition of virus DNA replication after 12 days by quantitative real time PCR; assay type: functional, organism-based; conditions: Human gammaherpesvirus 8, BC-3, 288 h
[19] = tested on: MOLT-4; assay: Antiviral activity against Human herpesvirus 6B Z29 infected in human MOLT4 cells assessed as inhibition of virus-induced cytopathic effect by microscopic estimation; assay type: functional, cell-based; conditions: Human herpesvirus 6 strain Z29
[20] = Ratio of EC50 for Human cytomegalovirus AD169 to EC50 for Murine cytomegalovirus; assay type: functional
[21] = Antiviral activity against Human herpesvirus 6B Z29 infected in human MOLT4 cells assessed as inhibition of virus DNA replication after 12 days by quantitative real time PCR; assay type: functional, cell-based, Human herpesvirus 6 strain Z29; conditions: Human betaherpesvirus 6B, MOLT-4, 288 h
[22] = tested on: Human betaherpesvirus 5; assay: Antiviral activity against Human cytomegalovirus infected in human […] cells transfected with pcDNA3.1-human GADPH-GFP assessed as induction of GFP-tagged viral immediate early gene expression at 50 uM after 48 hrs by transactivation assay; assay type: functional, organism-based; conditions: AD169
[23] = Selectivity index, ratio of CC50 for human BC-3 cells to EC50 for Human herpesvirus 8; assay type: toxicity, cell-based; conditions: read-out: Ratio CC50/EC50
[24] = Cytotoxicity against human BC-3 cells by MTT assay; assay type: cell-based
[25] = tested on: Human betaherpesvirus 5; assay: Antiviral activity against GDG-, GCV-resistant Human cytomegalovirus K17 harboring 4-aa deletion (638-641) in UL97 kinase infected in human foreskin fibroblast by plaque reduction assay; assay type: functional, organism-based; conditions: Human betaherpesvirus 5, K17
[26] = tested on: Human betaherpesvirus 5; assay: Antiviral activity against PFA-, acyclovir-resistant Human cytomegalovirus D100 harboring mutation in DNA polymerase infected in human foreskin fibroblast by plaque reduction assay; assay type: functional, organism-based; conditions: Human betaherpesvirus 5, D100
[27] = Antiviral activity against Murine cytomegalovirus Smith infected in mouse NIH-3T3 cells assessed as inhibition of virus DNA replication after 12 days by plaque reduction assay; assay type: functional, cell-based, Murine cytomegalovirus (strain Smith); conditions: Murid betaherpesvirus 1, NIH3T3, 288 h
[28] = Cytotoxicity against human MOLT4 cells by MTT assay; assay type: cell-based, MOLT-4
[29] = tested on: HSB-2; assay: Antiviral activity against Human herpesvirus 6A GS infected in human HSB-2 cells assessed as inhibition of virus-induced cytopathic effect by microscopic estimation; assay type: functional, cell-based; conditions: Human herpesvirus 6 (strain GS)
[30] = tested on: Human betaherpesvirus 5; assay: Antiviral activity against GCV-resistant Human cytomegalovirus 759rD100 harboring 4-aa deletion (638-641) in UL97 kinase and DNA polymerase A987G mutant infected in human foreskin fibroblast by plaque reduction assay; assay type: functional, organism-based; conditions: Human betaherpesvirus 5, 759rD100
[31] = Selectivity index, ratio of CC50 for mouse NIH 3T3 cells to EC50 for Murine cytomegalovirus; assay type: toxicity, cell-based, NIH3T3; conditions: read-out: Ratio CC50/EC50
[32] = tested on: Human gammaherpesvirus 8; assay: Antiviral activity against Human herpesvirus 8 infected in human BC-3 cells assessed as inhibition of virus-induced cytopathic effect by microscopic estimation; assay type: functional, organism-based

Structure (SMILES): Nc1cc2c(=O)c(C(=O)O)cn(C3CC3)c2cc1N1CCN(c2nc3ccccc3s2)CC1
- Activity [1]: Active
- CC50 at 120 h [2]: 4.5 µM
- Activity [3]: Active
- Activity [4]: Active
- Activity [5]: Active

Structure (SMILES): Nc1nc2c(ncn2COC(CO)CO)c(=O)[nH]1 [GANCICLOVIR]
- EC50 [6]: 1.9 µM
- CC50 at 120 h [2]: 550 µM

Structure (SMILES): Cn1cc(C(=O)O)c(=O)c2cc(N)c(N3CCN(c4ccccn4)CC3)cc21
- CC50 at 120 h [2]: 54 µM
- Ratio CC50/EC50 [7]: 77

Structure (SMILES): CC(C)(C)n1cc(C(=O)O)c(=O)c2cc(N)c(N3CCN(c4ccccn4)CC3)cc21
- CC50 at 120 h [2]: ≥ 475 µM
- Ratio CC50/EC50 [7]: >=13

Structure (SMILES): Nc1cc2c(=O)c(C(=O)O)cn(C3CC3)c2cc1N1CCN(c2ccccn2)CC1
- selectivity ratio [8]: 7
- EC50 [9]: 1 µM
- selectivity ratio [10]: 6
- Activity [11]: inactive
- EC50 [12]: 5.1 µM
- CC50 at 120 h [2]: 431 µM
- CC50 [13]: 275 µM
- EC50 [14]: 0.9 µM
- CC50 [15]: 32 µM
- Activity [16]: inactive
- Activity [17]: inactive
- EC50 [18]: 14.2 µM
- Activity [19]: Active
- fold change (FC) [20]: 10
- EC50 [21]: 3.3 µM
- Activity [22]: inactive
- selectivity ratio [23]: 3
- CC50 [24]: 47 µM
- EC50 [25]: 1.5 µM
- EC50 [26]: 1.1 µM
- EC50 [27]: 10.8 µM
- CC50 [28]: 24 µM
- Activity [29]: Active
- EC50 [30]: 0.9 µM
- selectivity ratio [31]: 25
- Activity [32]: Active
